In the supplement of paper PMC10307832:

Columns and labels:
Assay in all cases: relative viability (nuclei count vs DMSO), 5 days (fraction); higher = more cells survive
IDH-C35 + Pemetrexed = compound: Cc1ccccc1C(C(=O)NC1CCCCC1)N(C(=O)Cn1ccnc1C)c1cccc(F)c1 [IDH-C35] + Nc1nc2[nH]cc(CCc3ccc(C(=O)N[C@@H](CCC(=O)O)C(=O)O)cc3)c2c(=O)[nH]1 [Pemetrexed] (partner 0.2 µM)
Summary of the method: (§1)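 The day after seeding in 1536-well plates, lung cancer cell lines were treated by pin tool with a single drug, or with a fixed anchor-drug dose together with five library-drug doses (not always all listed) in √10 steps. After 5 days, a combined fix-and-stain solution (final 0.05% Triton X-100, 1% formaldehyde, 1 ug/ml Hoechst) was added. Nuclei counted on 4× images gave relative viability as treated counts over vehicle counts, reported as the median of duplicate plates.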

[1] = compound: CC1=C(C(=NN1)C)CC2=C(C3=C(S2)N(C(=O)N(C3=O)C)CC(C)C)C(=O)N4C[C@@H](CO4)O + Cc1nc(Nc2ncc(C(=O)Nc3c(C)cccc3Cl)s2)cc(N2CCN(CCO)CC2)n1 [Dasatinib] (partner 0.075 µM)
Summary of the method: as §1

IDH-C35 + Bortezomib = compound: Cc1ccccc1C(C(=O)NC1CCCCC1)N(C(=O)Cn1ccnc1C)c1cccc(F)c1 [IDH-C35] + CC(C)C[C@H](NC(=O)[C@H](Cc1ccccc1)NC(=O)c1cnccn1)B(O)O [Bortezomib] (partner 0.002 µM)
Summary of the method: as §1

IDH-C35 + Tozasertib = compound: Cc1ccccc1C(C(=O)NC1CCCCC1)N(C(=O)Cn1ccnc1C)c1cccc(F)c1 [IDH-C35] + Cc1cc(Nc2cc(N3CCN(C)CC3)nc(Sc3ccc(NC(=O)C4CC4)cc3)n2)n[nH]1 [Tozasertib] (partner 0.1 µM)
Summary of the method: as §1

Cell Line | relative viability (IDH-C35 + Pemetrexed; first compound 0.08 µM) | relative viability (IDH-C35 + Pemetrexed; first compound 0.253 µM) | relative viability (IDH-C35 + Pemetrexed; first compound 0.8 µM) | relative viability (IDH-C35 + Pemetrexed; first compound 2.53 µM) | relative viability (IDH-C35 + Pemetrexed; first compound 8 µM) | relative viability ([1]; first compound 0.0025 µM) | relative viability ([1]; first compound 0.007906 µM) | relative viability ([1]; first compound 0.025 µM) | relative viability ([1]; first compound 0.07906 µM) | relative viability ([1]; first compound 0.25 µM) | relative viability (IDH-C35 + Bortezomib; first compound 0.08 µM) | relative viability (IDH-C35 + Bortezomib; first compound 0.253 µM) | relative viability (IDH-C35 + Bortezomib; first compound 0.8 µM) | relative viability (IDH-C35 + Bortezomib; first compound 2.53 µM) | relative viability (IDH-C35 + Bortezomib; first compound 8 µM) | relative viability (IDH-C35 + Tozasertib; first compound 0.08 µM) | relative viability (IDH-C35 + Tozasertib; first compound 0.253 µM) | relative viability (IDH-C35 + Tozasertib; first compound 0.8 µM) | relative viability (IDH-C35 + Tozasertib; first compound 2.53 µM) | relative viability (IDH-C35 + Tozasertib; first compound 8 µM)
NCI-H2085 | 0.943 | 0.889 | 0.889 | 0.893 | 0.888 | 0.254 | 0.264 | 0.26 | 0.209 | 0.242 | 1.02 | 1.05 | 0.981 | 0.982 | 0.871 | 0.793 | 0.845 | 0.751 | 0.793 | 0.718
NCI-H2087 | 0.732 | 0.592 | 0.678 | 0.647 | 0.697 | 0.715 | 0.924 | 0.844 | 0.769 | 0.905 | 0.846 | 0.959 | 0.805 | 0.863 | 0.654 | 0.196 | 0.23 | 0.279 |  | 0.264
NCI-H2126 | 0.68 | 0.703 | 0.696 | 0.597 | 0.668 | 0.695 | 0.591 | 0.659 | 0.53 | 0.585 | 1.14 | 1.12 | 1.15 | 1.09 | 1.07 | 0.81 | 0.812 | 0.865 | 0.824 | 0.884
NCI-H2228 | 0.307 | 0.336 | 0.332 | 0.328 | 0.3 | 0.507 | 0.644 | 0.453 | 0.521 | 0.602 | 0.968 | 0.857 | 0.898 | 1.09 | 0.818 | 0.319 | 0.221 | 0.302 | 0.246 | 0.203
NCI-H2347 | 0.424 | 0.418 | 0.452 | 0.417 | 0.43 | 0.394 | 0.323 | 0.299 | 0.234 | 0.257 | 0.912 | 1.02 | 0.929 | 1.08 | 0.878 | 0.476 | 0.599 | 0.497 | 0.657 | 0.418
NCI-H2405 | 1.05 | 1.07 | 0.93 | 1.24 | 1.08 | 0.216 | 0.223 |  | 0.238 | 0.224 | 1 | 1 | 0.97 | 0.972 | 0.875 | 0.735 | 0.776 | 0.758 | 0.716 | 0.689
NCI-H3122 | 0.203 | 0.182 | 0.203 | 0.207 | 0.2 | 0.988 | 1.03 | 0.663 | 0.775 | 0.889 | 1.1 | 1.01 | 0.985 | 1.02 | 1.02 | 0.363 | 0.401 | 0.394 | 0.317 | 0.42
PC-3 [JPC-3] | 1.05 | 1.06 | 1.17 | 1.29 | 1.21 | 1.06 | 0.939 | 0.94 | 0.908 | 0.975 | 0.854 | 0.868 | 0.849 | 0.856 | 0.813 | 0.803 | 0.898 | 0.861 | 0.852 | 0.927
PC-14 | 0.127 | 0.135 | 0.152 | 0.154 | 0.133 | 0.281 | 0.261 | 0.254 | 0.278 | 0.269 | 0.983 | 0.897 | 0.792 | 0.834 | 0.767 | 0.634 | 0.542 | 0.611 | 0.58 | 0.557
RERF-LC-KJ | 0.431 | 0.492 | 0.478 | 0.481 | 0.523 | 0.874 | 0.946 | 0.751 | 0.855 | 0.804 | 1.09 | 1.08 | 1.1 | 1.2 | 1.19 | 0.396 | 0.503 | 0.489 | 0.544 | 0.442
SK-LU-1 | 1.06 | 0.983 | 1.03 | 1.05 | 0.887 | 0.194 | 0.195 | 0.192 | 0.169 | 0.182 | 1.34 | 1.33 | 1.25 |  | 1.03 | 0.359 | 0.347 | 0.364 | 0.341 | 0.341
SW 1573 | 0.692 | 0.889 | 0.879 | 0.789 | 0.763 | 0.451 | 0.681 | 0.402 | 0.501 | 0.597 | 1.06 | 1.19 | 0.967 | 1.06 | 1.05 | 0.187 | 0.14 | 0.239 | 0.194 | 0.184
